Laboratory results: US20230272012A1, “PEPTIDES AND METHODS OF USE” (REALTA LIFE SCIENCES, INC., priority 2020, published 2023)
“Also recorded” adds a separate entry of the source. Bridge positions count the residues as written; N and C are the ends. Square brackets hold non-standard residues; d marks the D form. Ends that are not written are not given here. Peptide text beside a SMILES is read from it. R8 = C=CCCCCCC[C@@](C)(N)C(=O)O; S5 = C=CCCC[C@](C)(N)C(=O)O; Sar = CNCC(=O)O

Assays:
CTLA-4 = molecular target: T1, CTLA-4 (Homo sapiens, UniProt P16410); test: CTLA-4 Blockade Bioassay (Promega); type: cell-based; parameters: host or cells: Jurkat T cells (CTLA-4 effector cells); aAPC/Raji cells; details: increasing concentrations
T1 sequence (P16410 36-223): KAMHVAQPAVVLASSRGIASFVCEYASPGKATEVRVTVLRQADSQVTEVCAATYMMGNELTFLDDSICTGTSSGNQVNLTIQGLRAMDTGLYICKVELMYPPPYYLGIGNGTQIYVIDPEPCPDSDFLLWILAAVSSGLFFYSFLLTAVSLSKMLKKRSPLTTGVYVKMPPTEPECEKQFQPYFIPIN
Protocol: CTLA-4 effector cells were incubated with aAPC/Raji Cells in the absence or presence of increasing concentrations of anti-CTLA-4 antibody (positive control), RLS-0127*, RLS-0130, RLS-0156, RLS-0170 and RLS-0174. Luminescence was detected in luminometer plate reader.
To assess if PIC1 peptides could block CTLA-4 inhibitory activity in a cell-based assay, select peptides were screened in the CTLA-4 Blockade Bioassay (Promega). This bioluminescent cell-based assay is used to measure the potency and stability of molecules targeting CTLA-4 and consists of two genetically engineered cell lines: CTLA-4 effector cells: Jurkat T cells expressing human CTLA-4 and a luciferase reporter driven by a native promoter which responds to TCR/CD28 activation and aAPC/Raji Cells: Raji cells expressing an engineered cell surface protein designed to activate cognate TCRs in an antigen-independent manner and endogenously expressing CTLA-4 ligands CD80 and CD86. When the two cell types are co-cultured, CTLA-4 competes with CD28 for their shared ligands, CD80 and CD86 and thus inhibits CD28 pathway activation and promoter-mediated luminescence. Addition of a molecule that blocks the interaction of CTLA-4 with its ligands CD80 and CD86 results in promoter-mediated luminescence.

MPO = molecular target: T2, MPO (Homo sapiens, UniProt P05164); test: MPO activity assay (TMB oxidation); type: biochemical; details: for inhibition of MPO peroxidase activity (TMB oxidation), dose response: purified human MPO, increasing amounts of peptide
T2 construct: purchased Lee BioSolutions (Maryland Heights, Mo.)
T2 sequence (P05164 49-745): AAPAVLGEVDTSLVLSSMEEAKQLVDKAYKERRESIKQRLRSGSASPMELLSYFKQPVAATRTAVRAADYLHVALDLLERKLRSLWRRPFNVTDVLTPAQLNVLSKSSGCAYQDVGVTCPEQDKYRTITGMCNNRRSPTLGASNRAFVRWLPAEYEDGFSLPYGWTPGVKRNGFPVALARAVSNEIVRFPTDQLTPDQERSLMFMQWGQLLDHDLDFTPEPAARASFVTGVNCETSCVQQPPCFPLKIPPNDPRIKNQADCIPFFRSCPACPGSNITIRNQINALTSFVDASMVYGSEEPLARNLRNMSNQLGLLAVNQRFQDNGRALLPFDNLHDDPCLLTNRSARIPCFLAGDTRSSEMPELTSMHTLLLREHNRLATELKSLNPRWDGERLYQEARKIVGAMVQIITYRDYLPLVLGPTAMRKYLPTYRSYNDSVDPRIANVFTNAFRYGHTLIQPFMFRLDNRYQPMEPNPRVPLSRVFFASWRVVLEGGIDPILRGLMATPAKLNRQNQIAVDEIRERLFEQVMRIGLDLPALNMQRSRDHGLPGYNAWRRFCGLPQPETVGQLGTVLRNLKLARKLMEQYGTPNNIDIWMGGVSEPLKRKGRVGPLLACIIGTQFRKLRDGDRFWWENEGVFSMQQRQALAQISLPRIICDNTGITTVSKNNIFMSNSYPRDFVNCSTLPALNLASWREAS
Protocol: The MPO activity assay was performed as previously described. Briefly, peptides were diluted to 12 mg/ml and serially titrated in a 96 well plate at a volume of 0.02 ml. MPO was diluted to 20 μg/ml and 0.02 ml was added to the titrated peptides. TMB (3,30,5,50-tetramethylbenzidine) (0.1 ml) was added to each well for 2 minutes, followed by 0.1 ml of 2.5 N H2SO4 for another 2 minutes, and then read on a 96 well plate reader (BioTek) at 450 nm.
The inventors also assessed the ability of RLS-0127* and RLS-0133* to inhibit MPO activity as determined by inhibition of oxidation of TMB in a plate-based assay. […] Additionally, the inventors assessed the ability of RLS-0127* and RLS-0133* to bind C1q in a plate-based assay in which C1q is coated on the plate and increasing amounts of the peptides are added, followed by primary antibody to the peptides and secondary antibody conjugated to HRP. The plate was then incubated with TMB to give a […] signal that is detected at a wavelength of 450 nm in a plate reader.

[1] = test system: purified human Pan T-cells; test: T-cell exhaustion protocol (Dynabeads re-stimulation); type: cell-based; details: peptides 2 mg/ml at each stimulation; for IL-2 signal at stimulation 2: supernatant ELISA

Compound | inhibitory activity in CTLA-4 blockade bioassay (luminescence) (CTLA-4) | MPO inhibition compared with PA-I8Sar (MPO; half-maximal values from dose-response curves) | IL-2 signal at stimulation 2 [1] | Caspase 3/7 levels ([1]; eighth day) | inhibition of MPO peroxidase activity (TMB oxidation), dose response (MPO)
CC[C@H](C)[C@H](N)C(=O)N[C@]1(C)CCCCCCC=CCCC[C@@](C)(C(=O)N[C@@H](CS)C(=O)N[C@@H](CCC(N)=O)C(=O)N[C@@H](CCC(=O)O)C(=O)N[C@@H](CCCNC(=N)N)C(=O)N[C@@H](C)C(=O)N[C@@H](C)C(=O)O)NC(=O)CN(C)C(=O)[C@@H]2CCCN2C(=O)[C@H](CCC(=O)O)NC(=O)[C@H](CC(C)C)NC(=O)[C@H]([C@@H](C)CC)NC(=O)[C@H](CC(C)C)NC1=O [PA-0115, IR8LILEP(Sar)S5CQERAA] (H-I[R8]LILEP[Sar][S5]CQERAA-OH; staple 2-9) | did not | enhanced activity | did not |  | 
CC[C@H](C)[C@H](N)C(=O)N[C@@H](C)C(=O)N[C@@H](CC(C)C)C(=O)N[C@H](C(=O)N[C@@H](CC(C)C)C(=O)N[C@@H](CCC(=O)O)C(=O)N1CCC[C@H]1C(=O)N(C)CC(=O)N[C@@H](CS)C(=O)N[C@@]1(C)CCCC=CCCC[C@@](C)(C(=O)N[C@@H](C)C(=O)O)NC(=O)[C@H](CCCNC(=N)N)NC(=O)[C@H](CCC(=O)O)NC(=O)[C@H](CCC(N)=O)NC1=O)[C@@H](C)CC [PA-0117, IALILEP(Sar)CS5QERS5A] (H-IALILEP[Sar]C[S5]QER[S5]A-OH; staple 10-14) | did not |  | showed an IL-2 signal at stimulation 2 | very low to undetectable levels of Caspase 3/7 | 
IALILEP(Sar)CCQERA (IALILEP[Sar]CCQERA; cysteine pairing not given here) [RLS-0133*] | did not |  | did not |  | dose-dependently inhibited TMB oxidation; also recorded: inhibit complement activation and MPO peroxidase activity
IALILEP(Sar)dCCQERRA (IALILEP[Sar][dC]CQERRA; cysteine pairing not given here) [RLS-0127*] | showed inhibitory activity; also recorded: able to inhibit CTLA-4 mediated cell signaling |  | showed an IL-2 signal at stimulation 2 |  | dose-dependently inhibited TMB oxidation; also recorded: inhibit complement activation and MPO peroxidase activity
